In PubChem BioAssay (NCI):
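Where inhibition never reached the appropriate level, the endpoint shown equals the highest concentration tested. Otherwise, values were interpolated linearly from a five-concentration, 48-hour dose response in 96-well plates. GI50 marks 50% less growth. Definition used: TGI = concentration required for complete inhibition of growth.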

Experiments:
Assay in all cases: NCI tumour cell line growth inhibition, 48 h
[1] = system: SK-OV-3 ovarian
[2] = system: MDA-MB-435
[3] = system: KM12 colon
[4] = system: EKVX NSCLC
[5] = system: OVCAR-4 ovarian
[6] = system: SNB-75 CNS
[7] = system: NCI-H460 lung
[8] = system: TK-10 renal
[9] = system: MOLT-4 leukemia
[10] = system: SNB-19 CNS
[11] = system: SK-MEL-28 melanoma
[12] = system: HL-60(TB) leukemia
[13] = system: SF-539 CNS
[14] = system: T-47D breast
[15] = system: CAKI-1 renal
[16] = system: CCRF-CEM leukemia
[17] = system: NCI-H23 lung
[18] = system: OVCAR-5 ovarian
[19] = system: U251 CNS
[20] = system: MCF7 breast
[21] = system: NCI-H522 lung
[22] = system: SN12C renal
[23] = system: A498 renal
[24] = system: HS 578T breast
[25] = system: DU-145 prostate
[26] = system: HOP-92 NSCLC
[27] = system: UACC-62 melanoma
[28] = system: SK-MEL-5 melanoma
[29] = system: HOP-62 NSCLC

With CN1CCc2c(sc3ncnc(N/N=C/c4ccc(Cl)cc4Cl)c23)C1 the GI50 [1] was 3.04 µM, the TGI [1] was 12.5 µM and the GI50 [2] was 2.11 µM. The TGI [2] was 5.44 µM, the GI50 [3] was 4.3 µM and the TGI [3] was 25.7 µM. The GI50 [4] was 10.8 µM, the TGI [4] was greater than 100 µM and the GI50 [5] was 1.79 µM. It also gave a TGI [5] of 3.81 µM, a GI50 [6] of 1.54 µM and a TGI [6] of 4.2 µM. The GI50 [7] was 3.2 µM, the TGI [7] was 13.3 µM and the GI50 [8] was 2.53 µM. The TGI [8] was 6.36 µM, the GI50 [9] was 2.9 µM and the TGI [9] was 18.4 µM. It also gave a GI50 [10] of 4.01 µM, a TGI [10] greater than 100 µM and a GI50 [11] of 2.04 µM. For the same molecule, the TGI [11] was 5.37 µM, the GI50 [12] was 2.12 µM and the TGI [12] was 6.11 µM. For the same molecule, the GI50 [13] was 1.81 µM, the TGI [13] was 3.28 µM and the GI50 [14] was 2.1 µM. It also gave a TGI [14] of 6.59 µM, a GI50 [15] of 1.8 µM and a TGI [15] of 3.87 µM. It also gave a GI50 [16] of 2.45 µM, a TGI [16] of 12.2 µM and a GI50 [17] of 2.81 µM. The TGI [17] was 10.7 µM, the GI50 [18] was 2.84 µM and the TGI [18] was 11.2 µM. The GI50 [19] was 1.92 µM, the TGI [19] was 4.31 µM and the GI50 [20] was 2.36 µM. For the same molecule, the TGI [20] was 14.7 µM, the GI50 [21] was 3.38 µM and the TGI [21] was 13.3 µM. It also gave a GI50 [22] of 2.43 µM, a TGI [22] of 6.7 µM and a GI50 [23] of 3.22 µM. It also gave a TGI [23] of 12.3 µM, a GI50 [24] of 3.18 µM and a TGI [24] of 27.3 µM. The GI50 [25] was 6.47 µM, the TGI [25] was greater than 100 µM and the GI50 [26] was 1.95 µM. It also gave a TGI [26] of 5.96 µM, a GI50 [27] of 1.7 µM and a TGI [27] of 3.67 µM. The GI50 [28] was 1.66 µM, the TGI [28] was 3.72 µM and the GI50 [29] was 3.34 µM.
